Test results reported in patent US10081641B2, “Pesticidally active heterocyclic derivatives with sulphur containing substituents” (Syngenta Participations AG, priority 2014, dated 2018).

Tests used:
Type in all cases: in vivo
[1] = test system: Plutella xylostella (Diamond Back Moth); test: Example B3: Plutella xylostella, artificial diet; conditions: 120 h, application rate of 200 ppm, artificial diet, L2 larvae, 5 days after infestation, read-out: effect in at least one of the two categories (mortality or growth inhibition)
Experimental: Example B3: Plutella xylostella (Diamond Back Moth)
24-well microtiter plates with artificial diet were treated with aqueous test solutions prepared from 10′000 ppm DMSO stock solutions by pipetting. After drying, the plates were infested with L2 larvae (10 to 15 per well). The samples were assessed for mortality and growth inhibition in comparison to untreated samples 5 days after infestation.

[2] = test system: Myzus persicae (Green Peach Aphid); test: Example B5: Myzus persicae, sprayed sunflower leaf discs; conditions: foliar, 144 h, application rate of 200 ppm, mixed ages, 6 days after infestation
Experimental: Example B5: Myzus persicae (Green Peach Aphid)
Sunflower leaf discs were placed on agar in a 24-well microtiter plate and sprayed with aqueous test solutions prepared from 10′000 ppm DMSO stock solutions. After drying, the leaf discs were infested with an aphid population of mixed ages. The samples were assessed for mortality 6 days after infestation.

[3] = test system: Thrips tabaci (Onion Thrips); test: Example B11: Thrips tabaci, sprayed sunflower leaf discs; conditions: foliar, 144 h, application rate of 200 ppm, mixed ages, 6 days after infestation
Experimental: Example B11: Thrips tabaci (Onion Thrips)
Sunflower leaf discs were placed on agar in 24-well microtiter plates and sprayed with aqueous test solutions prepared from 10′000 ppm DMSO stock solutions. After drying the leaf discs were infested with a thrips population of mixed ages. The samples were assessed for mortality 6 days after infestation.

[4] = test system: Euschistus heros (Neotropical Brown Stink Bug); test: Example B8: Euschistus heros, sprayed soybean leaf; conditions: 120 h, application rate of 200 ppm, N-2 nymphs, 5 days after infestation
Experimental: Example B8: Euschistus heros (Neotropical Brown Stink Bug)
Soybean leaf on agar in 24-well microtiter plates were sprayed with aqueous test solutions prepared from 10′000 ppm DMSO stock solutions. After drying the leaf were infested with N-2 nymphs. The samples were assessed for mortality 5 days after infestation.

[5] = test system: Bemisia tabaci (Cotton White Fly); test: Example B7: Bemisia tabaci, sprayed cotton leaf discs; conditions: foliar, 144 h, application rate of 200 ppm, adult white flies, 6 days after incubation
Experimental: Example B7: Bemisia tabaci (Cotton White Fly)
Cotton leaf discs were placed on agar in 24-well microtiter plates and sprayed with aqueous test solutions prepared from 10′000 ppm DMSO stock solutions. After drying the leaf discs were infested with adult white flies. The samples were checked for mortality 6 days after incubation.

[6] = test system: Spodoptera littoralis (Egyptian Cotton Leaf Worm); test: Example B2: Spodoptera littoralis, systemic test via lettuce roots in agar; conditions: 144 h, test rate of 12.5 ppm, uptake via lettuce roots, 6 days after infestation, read-out: effect in at least one of the three categories (mortality, anti-feedancy, or growth inhibition)
From the text: Example B2: Spodoptera littoralis (Egyptian Cotton Leaf Worm)
Test compounds were applied by pipette from 10′000 ppm DMSO stock solutions into 24-well plates and mixed with agar. Lettuce seeds were placed on the agar and the multi well plate was closed by another plate which contains also agar. After 7 days the roots have absorbed the compound and the lettuce has grown into the lid plate. The lettuce leafs were now cut off into the lid plate. Spodoptera eggs were pipetted through a plastic stencil on a humid gel blotting paper and the plate closed with it. The samples were assessed for mortality, anti-feedant effect and growth inhibition in comparison to untreated samples 6 days after infestation.

[7] = test system: Myzus persicae (Green Peach Aphid); test: Example B6: Myzus persicae, roots of pea seedlings in test solution; conditions: 144 h, test rate of 24 ppm, pea seedling roots in test solution, 6 days
Experimental: Example B6: Myzus persicae (Green Peach Aphid)
Roots of pea seedlings infested with an aphid population of mixed ages were placed directly in the aqueous test solutions prepared from 10′000 DMSO stock solutions. The samples were assessed for mortality 6 days after placing seedlings in test solutions.

[8] = test system: Diabrotica Balteata (Corn Root Worm); test: Example B4: Diabrotica balteata, sprayed maize sprouts; conditions: 96 h, application rate of 200 ppm, L2 larvae, 4 days after infestation, read-out: effect in at least one of the two categories (mortality or growth inhibition)
Experimental: Example B4: Diabrotica Balteata (Corn Root Worm)
Maize sprouts, placed on an agar layer in 24-well microtiter plates were treated with aqueous test solutions prepared from 10′000 ppm DMSO stock solutions by spraying. After drying, the plates were infested with L2 larvae (6 to 10 per well). The samples were assessed for mortality and growth inhibition in comparison to untreated samples 4 days after infestation.

[9] = test system: Spodoptera littoralis (Egyptian Cotton Leaf Worm); test: Example B1: Spodoptera littoralis, sprayed cotton leaf discs; conditions: foliar, 72 h, application rate of 200 ppm, cotton leaf discs, L1 larvae, 3 days after infestation, read-out: control (at least one of mortality, anti-feedant effect, growth inhibition)
Experimental: Example B1: Spodoptera littoralis (Egyptian Cotton Leaf Worm)
Cotton leaf discs were placed on agar in 24-well microtiter plates and sprayed with aqueous test solutions prepared from 10′000 ppm DMSO stock solutions. After drying, the leaf discs were infested with five L1 larvae. The samples were assessed for mortality, anti-feedant effect, and growth inhibition in comparison to untreated samples 3 days after infestation. Control of Spodoptera littoralis by a test sample is when at least one of mortality, anti-feedant effect, and growth inhibition is higher than the untreated sample.

[10] = test system: Frankliniella occidentalis (Western Flower Thrips); test: Example B12: Frankliniella occidentalis, sprayed sunflower leaf discs; conditions: foliar, 168 h, application rate of 200 ppm, mixed ages, 7 days after infestation
Experimental: Example B12: Frankliniella occidentalis (Western Flower Thrips)
Sunflower leaf discs were placed on agar in 24-well microtiter plates and sprayed with aqueous test solutions prepared from […] stock solutions. After drying the leaf discs were infested with a Frankliniella population of mixed ages. The samples were assessed for mortality 7 days after infestation.

CCS(=O)(=O)c1cc(C2(C#N)CC2)cnc1-c1nc2cc(C(F)(F)F)ncc2n1C [P16]
≥ 80%: percent effect (mortality or growth inhibition) at 200 ppm [1] | mortality at 200 ppm [2] | mortality at 200 ppm [3] | mortality at 200 ppm [4] | mortality at 200 ppm [5] | percent control (mortality, anti-feedancy or growth inhibition) at 12.5 ppm [6] | mortality at 24 ppm [7] | percent effect (mortality or growth inhibition) at 200 ppm [8] | percent control (mortality, anti-feedant effect or growth inhibition) at 200 ppm [9] | mortality at 200 ppm [10]
